Assay results reported in ChEMBL document CHEMBL3507680, “University of Dundee, Gates Library screen for HepG2 cell viability”.

Test: Human HepG2 cell viability assay in 384 well format
Type: toxicity, cell-based
Set-up: dose 125 nL, time 70.5 hour; cytotoxicity at 70.5 h: concentration not given beside the values
Conditions: HepG2 cells, read-out: Inhibition

Row | Compound | cytotoxicity at 70.5 h [%]
1 | CCc1ccc(CNC(=O)N2CCN(Cc3cc(C)on3)CC2)s1 | -4.93
2 | CC(C)c1nc(CN2CCC(c3ccnn3CCO)CC2)no1 | 19.5
3 | OCCn1nccc1C1CCN(Cc2nc(C3CC3)no2)CC1 | -1.33
4 | O=C(CCc1nnc(-c2ccccc2)o1)N1CCN(CC2CC2)CC1 | 1.86
5 | O=C(Cc1n[nH]c2ccccc12)N1CCCC1Cn1cccn1 (centres undefined) | 0.964
6 | Fc1cccc(-c2nc(CN3CCCC(Cn4cncn4)C3)co2)c1 (centres undefined) | 16.1
7 | Cc1nsc2ncc(C(=O)N3CCCC3c3cnn(C)c3)cc12 (centres undefined) | -0.553
8 | O=c1[nH]c(CCN2CCCCC2Cn2cccn2)nc2ccccc12 (centres undefined) | -1.7
9 | CCc1nc(C2CCCN(C(=O)c3cc(C(C)C)[nH]n3)C2)no1 (centres undefined) | -3.59
10 | Cc1nccn1CC1CCCN1S(=O)(=O)Cc1ccc(F)cc1 (centres undefined) | -0.149
11 | Cc1nc(C2CCCN(C(=O)c3ccc(N4CCCC4)nn3)C2)no1 (centres undefined) | 0.493
12 | Cc1nc(C2CCCN(C(=O)c3ccc(Cl)cn3)C2)no1 (centres undefined) | -5.54
13 | Cc1cc(C(=O)N2CCCC2c2noc(C)n2)[nH]n1 (centres undefined) | 1.6
14 | Cn1cc(C(=O)N2CCCC2c2noc(C3CC3)n2)c2ccccc21 (centres undefined) | -3.41
15 | c1ccc(Cn2cc(CNCC3CNc4ccnn4C3)cn2)cc1 (centres undefined) | 32.4
16 | Cc1cccc(-c2nc(CN3CCc4cncnc4C3)no2)c1 | -4.67
17 | O=C(c1ccn(-c2cccc(Cl)c2)n1)N1CCN(CCO)CC1 | 0.676
18 | CC(=O)Nc1nc(C(=O)N2CCCC2c2noc(C3CC3)n2)cs1 (centres undefined) | -3.64
19 | c1cc(CNCC2CNc3ccnn3C2)cc(Cn2cccn2)c1 (centres undefined) | 4.46
20 | CCc1nc(C2CCCN2C(=O)c2csc(NC(C)=O)n2)no1 (centres undefined) | -1.48
21 | CC(C)Oc1ncccc1CNC(=O)N1CCCC1c1ccsc1 (centres undefined) | -0.144

Row | Compound | cytotoxicity at 70.5 h [%]
22 | Cc1ncsc1C(=O)NC1CCN(Cc2ccc(C(N)=O)cc2)CC1 | 1.08
23 | Cc1cc2n(n1)CC(CNCc1ccccc1Cn1cccn1)CN2 (centres undefined) | 4.35
24 | OCc1ccccc1CNCC1CNc2ccnn2C1 (centres undefined) | -1.22
25 | N#Cc1ccc(OCCN2CCc3cncnc3C2)cc1 | 0.4
26 | Cc1nnc2n1CCN(CCS(=O)(=O)c1ccc(Cl)cc1)C2 | 2.97
27 | CC(C)(O)CN1CCN(C(=O)c2cccc(CC#N)c2)CC1 | 1.57
28 | CC(C)c1nnc(CN2CCN(CC(O)c3ccccc3)CC2)o1 (centres undefined) | -0.811
29 | O=C(c1cc2cc(F)ccc2[nH]1)N1CCCCC1Cn1cccn1 (centres undefined) | -0.801
30 | CC(O)CN1CCN(C(=O)c2ccn(-c3ccc(F)cc3)n2)CC1 (centres undefined) | -3.45
31 | CC(C)c1nnc2n1CCN(CCS(=O)(=O)c1ccccc1)C2 | -2.01
32 | CC(C)(C(N)=O)N1CCN(C(=O)c2ccn(-c3cccc(Cl)c3)n2)CC1 | -0.38
33 | Cc1cc(NC(=O)CN2CCc3cnc(C(C)C)nc3C2)on1 | -1.61
34 | Cc1ccc(-c2nc(CN3CCc4cnc(C)nc4C3)no2)cc1 | 0.992
35 | CCc1nc(CN2CCN(C(=O)N3CCCCC3)CC2)cs1 | 21.4
36 | CCOC(C)C(=O)N1CCCN(Cc2csc(CC)n2)CC1 (centres undefined) | 22.4
37 | CCc1nc(CN2CCCN(C(=O)CC(C)OC)CC2)cs1 (centres undefined) | 51.7
38 | CN(Cc1cccnc1)C(=O)NC1CCN(Cc2ccccn2)CC1 | 0.886
39 | CC(c1ccc(F)cc1F)N1CCN(Cc2nccn2C)CC1 (centres undefined) | -0.0589
40 | CC(C)n1ccc(CN2CCOC(CNc3cccnn3)C2)n1 (centres undefined) | 3.22
41 | CC(C)(C)c1noc(CCCC(=O)NCC2CCS(=O)(=O)C2)n1 (centres undefined) | 0.495
42 | CC(C)c1noc(CCC(=O)NCC2CC2)n1 | 23.5

Row | Compound | cytotoxicity at 70.5 h [%]
43 | CC(C)(C)C(=O)NS(=O)(=O)c1ccc(C#N)cc1C(F)(F)F | -14.8
44 | CCc1nccn1C1CCCN(C(=O)CCc2nccs2)C1 (centres undefined) | -15.8
45 | COc1ccccc1N1CCC(CNCc2cccc(O)c2)C1 (centres undefined) | 8.44
46 | Cc1nn(C)c(Cl)c1C1CCCN1C(=O)c1cc[nH]n1 (centres undefined) | -13
47 | Cc1nn(C)c(Cl)c1C1CCCN1C(=O)c1ccc2nncn2c1 (centres undefined) | 5.97
48 | CC(NCc1ccccc1Br)c1ccc2[nH]c(=O)[nH]c2c1 (centres undefined) | 3.35
49 | c1cnnc(N2CCCC(NCc3nnc(-c4ccco4)o3)C2)c1 (centres undefined) | 3.16
50 | CN(C)c1cc(CNC(=O)Nc2ccc(F)cc2)ccn1 | 12.6
51 | COc1ncccc1CNC(=O)c1cccc(C)n1 | 11.1
52 | CC1CCCN(C(=O)c2cccc(CS(C)(=O)=O)c2)C1 (centres undefined) | 7.89
53 | COc1ncccc1NC(=O)c1cccc(C)n1 | -7.22
54 | COc1ccc(CNCc2ccc(N3CCCCC3)nc2)cc1OC | -4.42
55 | CCC(NC(=O)c1ccco1)c1ccccc1OCC(=O)N1CCCC1 (centres undefined) | -6.16
56 | CCC(NC(=O)CC(F)(F)F)c1ccccc1OCC(=O)N1CCCC1 (centres undefined) | -7.99
57 | COc1ncccc1CNC(=O)c1cccnc1O | -8.53
58 | CCOC1CCCN(C(=O)c2sccc2-n2cnnn2)C1 (centres undefined) | -2.74
59 | O=C(O)c1cc(S(=O)(=O)N2CCOc3ccccc32)ccc1F | 0.682
60 | Cc1nn(C)c(N(C)C)c1CNCCCN(C)S(C)(=O)=O | -6.18
61 | CS(=O)(=O)Cc1cccc(C(=O)N2CCCC(n3cccn3)C2)c1 (centres undefined) | 17.8
62 | c1csc(-c2nc(CNC3CCc4ncnn4C3)cs2)c1 (centres undefined) | -16.5
63 | c1nc2n(n1)CC(NCc1csc(-c3ccsc3)n1)CC2 (centres undefined) | -17.5

Row | Compound | cytotoxicity at 70.5 h [%]
64 | CCc1nnc2n1CCN(Cc1nc(-c3ccoc3)no1)C2 | -7.66
65 | CN(C)c1cc(C(=O)N2CCCC(n3cccn3)C2)ccn1 (centres undefined) | -11.4
66 | O=C(NCCOc1ccc(Cl)cc1)N1CCS(=O)(=O)CC1 | 9.92
67 | Cc1ccc2oc(C(=O)N3CCC(C(=O)N4CCCC4)CC3)cc2n1 | -14.6
68 | Cc1c(F)cc(C(=O)O)cc1S(=O)(=O)Nc1cccc(C(F)F)c1 | -10.3
69 | Cc1cc(C)c(OCC(=O)NS(=O)(=O)c2c(C)noc2C)c(C)c1 | 12.1
70 | COCc1nc(C(=O)NS(=O)(=O)c2cc(F)ccc2F)cs1 | 20.7
71 | O=C(CN1CCCS1(=O)=O)NCCOc1ccc2c(c1)CCC2 | 5.58
72 | Cc1cc(CNc2cc(Cl)ccc2OCCS(C)(=O)=O)no1 | 13.3
73 | Cc1n[nH]c(C)c1C1COCCN1C(=O)c1cc(Cl)c[nH]1 (centres undefined) | -5.39
74 | CN(Cc1ccccc1)CC(O)Cn1cnc2ccccc2c1=O (centres undefined) | 6.62
75 | Clc1ccccc1-c1nc(CNC2CCc3ncnn3C2)cs1 (centres undefined) | -1.51
76 | CCc1ncc(C(=O)N2CCOCC2c2c(C)n[nH]c2C)s1 (centres undefined) | -2.25
77 | Cc1ccc(Cl)cc1N1CCC(CNC(=O)CCn2ccnn2)C1 (centres undefined) | -6.67
78 | Cc1cccn2cc(CC(=O)N3CCCC(n4cncn4)C3)nc12 (centres undefined) | -3.85
79 | c1ccc(OC2CCCC2)c(CNC2CCc3ncnn3C2)c1 (centres undefined) | 1.21
80 | O=C(c1ccc(OCC2CC2)nc1)N1CCCC(n2cncn2)C1 (centres undefined) | -12.6
81 | Cc1ccc(Cl)cc1N1CCC(CNC(=O)CCn2ccnc2)C1 (centres undefined) | -10.1
82 | NC(=O)C1CCN(C(=O)c2cccc(OCc3cscn3)c2)CC1 | -12.5
83 | O=C(c1ccc2c(c1)OCO2)N1CCN(c2cnccn2)CC1 | -3.98
84 | COc1cccc(-n2nnc(C(=O)N3CCCC3)c2C)c1 | -13.2
